# Measurements taken from US20240016781A1, “TREATMENT OF KRAS MUTANT CANCERS” (MEI Pharma, Inc., priority 2020, published 2024).
# Where two headings read alike, the source gives them in different places.
# Legend:
# Test in all cases: 72-hour CellTiter-Glo 2.0 growth inhibition screen (single agent, 9x9 combination dose matrix)
# Format in all cases: cell-based
# [1] = system: SW48; conditions: for EC50 / Emax: Homo sapiens; for EC50: SW48, 72 h; for EC50 / Emax / Response Area: SW48, Colorectal
# Protocol: (§1) Growth inhibition was determined using a 72-hour CellTiter-Glo®2.0 proliferation assay. Combination format was a 9×9 dose matrix. Six of the 20 cell lines received the original two combinations whilst the remaining 14 cell lines received two additional combinations resulting in four combinations in total. Results have been supplied as both Chalice Analyzer files (.mcc) and raw luminescence data.
# (§2) Cell lines that have been preserved in liquid nitrogen are thawed and expanded in growth media (see Appendix I). Once cells have reached expected doubling times, screening begins. Cells are seeded in 25 μl of growth media in black 384-well tissue culture treated plates at 500 cells per well (as noted in Analyzer). Cells are equilibrated in assay plates via centrifugation and placed at 37° C. 5% CO2 for twenty-four hours before treatment. […] Compounds are transferred to assay plates using and Echo acoustic liquid handling system. […] of each compound was added at the appropriate concentration for all combination dose points. Therefore, final assay volume would be 25.05 μl. Assay plates are incubated with compound for 3 days and are then analyzed using CellTiter-Glo 2.0. All data points are collected via automated processes and are subject to quality control and analyzed.
# (§3) If T≥V_0:100*(1−(T−V_0)/(V−V_0)) • where T is the signal measure for a test article, V is the untreated/vehicle-treated control measure, and Vo is the untreated/vehicle control measure at time zero (also colloquially referred as TO plates). This formula is derived from the Growth Inhibition calculation used in the National Cancer Institute's NCI-60 high throughput screen. For the purposes of this disclosure, all data analysis was performed in Growth Inhibition (except where noted).
# (§4) Inhibition is also provided as a measure of cell viability. […] Inhibition of 100% represents no doubling of cell numbers during the treatment window. Both cytostatic and cytotoxic treatments can yield an Inhibition percentage of 100%. Inhibition percentage is calculated as the following: […]
# (§5) The fractional inhibition for each component agent and combination point in the matrix is calculated relative to the median of all untreated/vehicle-treated control wells. The Synergy Score equation integrates the experimentally-observed activity volume at each point in the matrix in excess of a model surface numerically derived from the activity of the component agents using the Loewe model for additivity. Additional terms in the Synergy Score equation (above) are used to normalize for various dilution factors used for individual agents and to allow for comparison of synergy scores across an entire experiment. The inclusion of positive inhibition gating or an Idata multiplier removes noise near the zero-effect level, and biases results for synergistic interactions at that occur at high activity levels. Combinations with higher maximum Growth Inhibition (GI) effects or those which are synergistic at low concentrations will have higher Synergy Scores.
# (§6) The CI is a rough estimate of how much drug was needed in combination relative to the single agent doses required to achieve the chosen effect level. CI values in the range of 0.5-0.7 are typical for in vitro measurements of current clinical combinations. The CI error (σCI) is calculated using standard error propagation through the CI calculation based on the isobologram errors. In the Chalice Analyzer, the Best CI is reported from the many CI values calculated for each Icut crossing combination. Among all the measured CI values, the one with the largest single-to-noise level (1−CI)/σCI is reported as the Best CI. Best CI Level is the effect level from which the CI is calculated.
# [2] = system: Gp2D; conditions: for EC50: GP2d; for EC50 / Response Area / Emax: Colorectal; for Response Area / Emax: Gp2D
# Protocol: as §1, §2, §3, §4, §5, §6
# [3] = system: NCI-H358; conditions: for EC50: NCI-H358, 72 h
# Protocol: as §1, §2, §3, §4, §5, §6
# [4] = system: Panc 04.03; conditions: for Response Area: Panc 04.03, Pancreas
# Protocol: as §1, §2, §3, §4, §5, §6
# [5] = system: SW837; conditions: for EC50: SW837, 72 h
# Protocol: as §1, §2, §3, §4, §5, §6
# [6] = Additional Single Agent Responses (inhibition, % I), 72 h
# [7] = Additional Single Agent Responses, 72 h, read-out: Max Response (% I)
# [8] = growth inhibition (GI), single agent, 72 h, read-out: Max Response (% GI)
# [9] = SW48 (KRAS WT), enhancer + MEI-522 (Voruciclib), 72 h
# [10] = growth inhibition (GI), AUC, single agent, 72 h
# [11] = enhancer combined with MEI-522 (Voruciclib), SW48 (Colorectal), 72 hours, inhibition data
# [12] = Gp2D (KRAS G12D), enhancer + MEI-522 (Voruciclib), 72 h
# [13] = enhancer combined with MEI-522 (Voruciclib), Gp2D (Colorectal), 72 hours, inhibition data
# [14] = NCl-H358 (KRAS G12C), enhancer + MEI-522 (Voruciclib), 72 h
# [15] = enhancer combined with MEI-522 (Voruciclib), NCl-H358 (Lung), 72 hours, inhibition data
# [16] = Panc 04.03 (KRAS G12D), enhancer + MEI-522 (Voruciclib), 72 h
# [17] = enhancer combined with MEI-522 (Voruciclib), Panc 04.03 (Pancreas), 72 hours, inhibition data
# [18] = Homo sapiens, SW837, Colorectal, growth inhibition (GI) curve, single agent, 72 h
# [19] = SW837 (KRAS G12C), enhancer + MEI-522 (Voruciclib), 72 h
# [20] = enhancer combined with MEI-522 (Voruciclib), SW837 (Colorectal), 72 hours, inhibition data
structure (smiles),measurement,setting,value
C=CC(=O)N1CCN(c2nc(=O)n(-c3c(C)ccnc3C(C)C)c3nc(-c4c(O)cccc4F)c(F)cc23)[C@@H](C)C1 [AMG510],EC50,[1]; [6],2710 nM
same,EC50,"[1]; growth inhibition (GI) curve, single agent, 72 h",2720 nM
same,Emax,[1]; [7],14%
same,Emax,[1]; [8],17%
same,Best CI,[1]; [9],0.46
same,Bliss Volume,[1]; [9],2.71
same,HSA volume,[1]; [9],0.73
same,Loewe Volume,[1]; [9],2.40
same,Synergy Score,[1]; [9],4.05
same,Response Area,[1]; [6],0.48
same,Response Area,[1]; [10],0.61
same,Best CI,[1]; [11],0.50
same,Bliss Volume,[1]; [11],1.20
same,HSA volume,[1]; [11],0.35
same,Loewe Volume,[1]; [11],1.24
same,Synergy Score,[1]; [11],1.36
same,Best CI Level,"[1]; enhancer combined with MEI-522 (Voruciclib), SW48 (Colorectal), 72 hours, inhibition data, unit assumed",35%
same,EC50,"[2]; 72 h, Additional Single Agent Responses (inhibition, % I)",2560 nM
same,EC50,"[2]; 72 h, growth inhibition (GI) curve, single agent",2550 nM
same,Best CI,[2]; [12],0.47
same,Bliss Volume,[2]; [12],1.60
same,HSA volume,[2]; [12],−1.47
same,Loewe Volume,[2]; [12],1.40
same,Synergy Score,[2]; [12],2.14
same,Response Area,[2]; [6],0.42
same,Emax,[2]; [7],13%
same,Response Area,[2]; [10],0.55
same,Emax,[2]; [8],18%
same,Best CI,[2]; [13],0.90
same,Best CI Level,[2]; [13],20
same,Bliss Volume,[2]; [13],0.54
same,HSA volume,[2]; [13],−1.21
same,Loewe Volume,[2]; [13],0.47
same,Synergy Score,[2]; [13],0.43
same,EC50,"[3]; Homo sapiens, NCl-H358, Lung, Additional Single Agent Responses (inhibition, % I), 72 h",8.5 nM
same,EC50,"[3]; Homo sapiens, NCl-H358, Lung, growth inhibition (GI) curve, single agent, 72 h",9.4 nM
same,IC50,"[3]; Homo sapiens, NCI-H358, NCl-H358, Lung, Additional Single Agent Responses (inhibition, % I), 72 h",14.2 nM
same,Emax,"[3]; Homo sapiens, NCI-H358, NCl-H358, Lung, Additional Single Agent Responses, 72 h, read-out: Max Response (% I)",79%
same,GI50,"[3]; Homo sapiens, NCI-H358, NCl-H358, Lung, growth inhibition (GI) curve, single agent, 72 h",8.8 nM
same,Emax,"[3]; Homo sapiens, NCI-H358, NCl-H358, Lung, growth inhibition (GI), single agent, 72 h, read-out: Max Response (% GI)",108%
same,Best CI,[3]; [14],0.51
same,Bliss Volume,[3]; [14],4.55
same,HSA volume,[3]; [14],2.53
same,Loewe Volume,[3]; [14],2.07
same,Synergy Score,[3]; [14],3.63
same,Response Area,"[3]; NCl-H358, Lung, Additional Single Agent Responses (inhibition, % I), 72 h",3.87
same,Response Area,"[3]; NCl-H358, Lung, growth inhibition (GI), AUC, single agent, 72 h",5.18
same,Best CI,[3]; [15],0.51
same,Best CI Level,[3]; [15],20
same,Bliss Volume,[3]; [15],−0.42
same,HSA volume,[3]; [15],1.90
same,Loewe Volume,[3]; [15],1.20
same,Synergy Score,[3]; [15],1.07
same,EC50,"[4]; Homo sapiens, Panc 04.03, 72 h",3000 nM
same,Emax,"[4]; Homo sapiens, Panc 04.03, 72 h, read-out: Max Response (% GI)",25%
same,Emax,"[4]; Homo sapiens, Panc 04.03, 72 h, read-out: Max Response (% I)",19%
same,Best CI,[4]; [16],0.51
same,Bliss Volume,[4]; [16],2.52
same,HSA volume,[4]; [16],−2.59
same,Loewe Volume,[4]; [16],2.70
same,Synergy Score,[4]; [16],3.01
same,Response Area,[4]; [6],0.00
same,Response Area,[4]; [10],0.00
same,Best CI,[4]; [17],0.60
same,Best CI Level,[4]; [17],20
same,Bliss Volume,[4]; [17],0.79
same,HSA volume,[4]; [17],−2.11
same,Loewe Volume,[4]; [17],1.18
same,Synergy Score,[4]; [17],1.06
same,EC50,"[5]; Homo sapiens, SW837, Colorectal, Additional Single Agent Responses (inhibition, % I), 72 h",9.9 nM
same,EC50,[5]; [18],10.4 nM
same,Emax,"[5]; Homo sapiens, SW837, Colorectal, Additional Single Agent Responses, 72 h, read-out: Max Response (% I)",37%
same,GI50,[5]; [18],162 nM
same,Emax,"[5]; Homo sapiens, SW837, Colorectal, growth inhibition (GI), single agent, 72 h, read-out: Max Response (% GI)",56%
same,Best CI,[5]; [19],0.72
same,Bliss Volume,[5]; [19],7.24
same,HSA volume,[5]; [19],6.16
same,Loewe Volume,[5]; [19],6.02
same,Synergy Score,[5]; [19],6.03
same,Response Area,"[5]; SW837, Colorectal, Additional Single Agent Responses (inhibition, % I), 72 h",1.79
same,Response Area,"[5]; SW837, Colorectal, growth inhibition (GI), AUC, single agent, 72 h",2.67
same,Best CI,[5]; [20],0.64
same,Best CI Level,[5]; [20],65
same,Bliss Volume,[5]; [20],2.98
same,HSA volume,[5]; [20],4.27
same,Loewe Volume,[5]; [20],4.27
same,Synergy Score,[5]; [20],2.77
